# According to US4183931A, “2-Ketoalkyl-4(3H)-quinazolinones” (Research Corporation, priority 1977, dated 1980):
# Read-outs that look alike come from different tables or passages of the source.
# Assays:
# [1] = Neuropharmacological Profile (NPP): general CNS observational screen (depression, righting reflex, ataxia)
# [2] = NPP maximal electroshock seizure (MES) protection; format: in vivo, white male mice of the Carworth Farm Strain CF-1; details: Mus musculus, ip; conducted at 30 mg/kg i.p.
# [3] = NPP lethality (estimated LD50); details: mouse, in vivo, ip
# [4] = NINCDS Maximal Electroshock Seizure Test (MES); format: in vivo, mice; details: for minimal effective dose: read-out: MES: dosage level that elicited protection
# Experimental: 1. Neurological Activity Tests. […] Compounds were evaluated for anticonvulsant activity in two seizure models, the maximal electroshock seizure (MES) test and the subcutaneous pentylenetetrazol (Metrazol) seizure threshold (scMet) test.
# The Maximal Electroshock Seizure Test was performed according to the method described by Swinyard and coworkers,* wherein a drop of 0.9% saline is instilled in each eye prior to application of corneal electrodes. Seizures are elicited with a 50 Hz alternating current of 50 mA (5 to 7 times that necessary to elicit minimal electroshock seizures) delivered for 0.2 sec via corneal electrodes. This stimulus will produce a maximal seizure in all normal mice. The maximal seizure typically consists of a short period of initial tonic flexion and a prolonged period of hind limb tonic extension, followed by terminal clonus. The seizure lasts about 22 seconds. Abolition of the hind limb tonic extensor component of the seizure is defined as protection and indicates anticonvulsant activity in the test compound.
# The ability of a compound to prevent maximal electroshock seizures is believed to correlate with its ability to prevent the spread of seizure discharge through neural tissue. Activity against maximal electroshock seizures is thought to indicate potential efficacy in the treatment of major motor (grand mal) seizures. […] Selective action in the test is believed to indicate potential efficacy against absence (petit mal) seizures.
# As described earlier, the MES, scMet and Rotorod tests were performed one-half hour and four hours after administration of each compound.
# In the Secondary Evaluation, median effective doses (ED50) are determined in the MES, scMet and Rotorod assays using the procedures defined in Pharmacology, 95, 99-113 (1949).
# Separate groups of animals are used for each time period. The times of peak toxic and anticonvulsant effect are taken from the resulting graph of percent of animals responding vs. time, and the determinations of median effective doses are performed at those times.
# [5] = NINCDS primary evaluation, overall classification; format: in vivo, mice; details: mouse, in vivo
# Experimental: 1. Neurological Activity Tests. The biological testing program is designed to evaluate the following four aspects of drug action: (1) the existence and specificity of anticonvulsant activity; (2) the toxicity, particularly to the central nervous system; and, if the results of (1) and (2) are favorable, (3) the potency and protective index, a comparison between toxic and effective dose and (4) the time course of activity. Compounds were evaluated for anticonvulsant activity in two seizure models, the maximal electroshock seizure (MES) test and the subcutaneous pentylenetetrazol (Metrazol) seizure threshold (scMet) test.
# Specific anticonvulsant evaluations performed by NINCDS using MES, scMet and Rotorod assays are presented in Tables III & IV for fourteen new compounds as well as several known compounds. Table III centers attention on 2-substituted-3-o-tolyl-4-(3H)-quinazolinones while Table IV includes the findings for various other 2,3-disubstituted-4(3H)-quinazolinones. As described earlier, the MES, scMet and Rotorod tests were performed one-half hour and four hours after administration of each compound. The tables identify the dosage level that elicited a positive result, such as protection against MES and scMet induced seizures, or loss of balance on the rotorod.
# [6] = at 100 mg/kg, i.p., mice, score 0-8
smiles,measurement,setting,value
"O=C(Cc1nc2ccccc2c(=O)n1-c1ccccc1Cl)c1ccncc1 [IVd, 2-[2-Oxo-2-(4-pyridyl)ethyl]-3-o-chlorophenyl-4(3H)-quinazolinone]",behavioral activity compared with methaqualone,[1]; NPP summary,approaches that of methaqualone
same,Depression,"[1]; at 10 mg/kg, i.p., mice, score 0-8",2
same,CNS Depression,"[1]; at 30 mg/kg (value in parentheses), i.p., mice, score 0-8",2
same,Ataxia,[1]; [6],6
same,CNS Depression,[1]; [6],6
same,Righting reflex,[1]; [6],8
same,responders at 30 mg/kg,[2],50%
same,LD50 at 48 h,[3],237 mg/kg
same,minimal effective dose,"[4]; Mus musculus, ip, after 0.5 hr",300 mg/kg
same,minimal effective dose,"[4]; Mus musculus, ip, after 4 hr (value in parentheses)",100 mg/kg
same,ED50,"[4]; Mus musculus, ip, secondary evaluation, at time of peak effect",33.5 mg/kg
same,MES protective index compared with methaqualone,[4]; secondary evaluation,approximately four-fold higher
same,PI MES (Protective Index = TD50/ED50),[4]; secondary evaluation,4.08
same,potency against electroshock-induced (MES) seizures compared with methaqualone,[4]; secondary evaluation,more potent
same,MES protective index compared with commercial agents,"[4]; vs Ethotoin, Mephenytoin, Phenobarbital, Metharbital, Trimethadione, Paramethadione, Methsuximide, Phensuximide, Diazepam, Clonazepam",higher MES protective index
same,dosage for useful anticonvulsant activity relative to dosage for sedative-hypnotic activity,[5],fourfold lower
